The values below are quoted from earlier work in patent US20210213090A1, “COMPOSITIONS, USES AND METHODS FOR TREATMENT AND/OR PREVENTION OF ELEVATED CHOLESTEROL, HYPERCHOLESTEROLEMIA, AND CARDIOVASCULAR DISEASE” (Nutraceutical Holdings Inc., priority 2018, published 2021).

The test system of the data set is LDL-C / cholesterol. Particulars: human, in vivo.

As for `COC1=C(OC)C(=O)C(C/C=C(\C)CC/C=C(\C)CC/C=C(\C)CC/C=C(\C)CC/C=C(\C)CC/C=C(\C)CC/C=C(\C)CC/C=C(\C)CC/C=C(\C)CCC=C(C)C)=C(C)C1=O` [coenzyme Q10, ubiquinone], the “effect of supplementation on statin-related muscle symptoms, in words” value is reported as “decreases statin-related mild-to-moderate muscle symptoms”.
